Source: EPA's CvTdb concentration-time database

System: rat
Experiment: concentration in blood after dosing; negative times count back from the end of exposure
Details: dosed: 1,1-dichloroethylene, inhalation, duration: 3 hr, male, Sprague-Dawley

C=C(Cl)Cl [1,1-dichloroethylene]
Details | concentration in blood [ng/mL]
0.1331 h, 75 ppm | 162
0.1373 h, 300 ppm | 2120
0.1374 h, 25 ppm | 61.4
0.1383 h, 150 ppm | 122
0.1969 h, 75 ppm | 117
0.1973 h, 150 ppm | 108
0.1979 h, 25 ppm | 38.6
0.2044 h, 300 ppm | 1740
0.2603 h, 150 ppm | 92.9
0.2608 h, 75 ppm | 83.7
0.261 h, 25 ppm | 32.9
0.2757 h, 300 ppm | 1350
0.3322 h, 75 ppm | 62.5
0.3352 h, 300 ppm | 1060
0.3356 h, 25 ppm | 29.2
0.3396 h, 150 ppm | 68
0.3946 h, 150 ppm | 61.6
0.3984 h, 25 ppm | 26.6
0.3984 h, 300 ppm | 874
0.3991 h, 75 ppm | 54.9
0.496 h, 25 ppm | 25.4
0.4961 h, 150 ppm | 60
0.508 h, 300 ppm | 801
0.5085 h, 75 ppm | 50.8
4 s, 75 ppm | 340
13 s, 150 ppm | 473
118 s, 25 ppm | 126
132 s, 75 ppm | 312
133 s, 150 ppm | 291
137 s, 300 ppm | 3090
232 s, 75 ppm | 275
238 s, 25 ppm | 78.9
238 s, 150 ppm | 188
253 s, 300 ppm | 2500

during exposure
Details | concentration in blood [ng/mL]
-14 s, 25 ppm | 184
-8 s, 300 ppm | 4150
-2.956 h, 25 ppm | 50.3
-2.956 h, 75 ppm | 100
-2.954 h, 300 ppm | 1030
-2.951 h, 150 ppm | 83
-2.903 h, 25 ppm | 67.4
-2.899 h, 75 ppm | 139
-2.899 h, 150 ppm | 154
-2.893 h, 300 ppm | 1320
-2.861 h, 150 ppm | 190
-2.854 h, 300 ppm | 1490
-2.853 h, 75 ppm | 170
-2.846 h, 25 ppm | 92.7
-2.793 h, 25 ppm | 128
-2.793 h, 300 ppm | 1680
-2.792 h, 150 ppm | 271
-2.787 h, 75 ppm | 188
-2.729 h, 75 ppm | 212
-2.727 h, 25 ppm | 143
-2.727 h, 150 ppm | 302
-2.727 h, 300 ppm | 1840
-2.657 h, 150 ppm | 325
-2.653 h, 25 ppm | 149
-2.653 h, 300 ppm | 1920
-2.652 h, 75 ppm | 253
-2.583 h, 300 ppm | 2080
-2.582 h, 75 ppm | 263
-2.575 h, 25 ppm | 143
-2.568 h, 150 ppm | 371
-2.498 h, 25 ppm | 155
-2.494 h, 300 ppm | 2200
-2.492 h, 75 ppm | 283
-2.49 h, 150 ppm | 408
-2.396 h, 300 ppm | 2250
-2.393 h, 25 ppm | 162
-2.391 h, 75 ppm | 301
-2.389 h, 150 ppm | 421
-2.197 h, 75 ppm | 333
-2.194 h, 25 ppm | 162
-2.194 h, 150 ppm | 424
-2.194 h, 300 ppm | 2410
-1.996 h, 300 ppm | 2600
-1.995 h, 25 ppm | 166
-1.99 h, 75 ppm | 335
-1.988 h, 150 ppm | 461
-1.743 h, 300 ppm | 2760
-1.742 h, 25 ppm | 171
-1.741 h, 75 ppm | 340
-1.738 h, 150 ppm | 453
-1.5 h, 25 ppm | 176
-1.497 h, 300 ppm | 3050
-1.496 h, 75 ppm | 346
-1.493 h, 150 ppm | 463
-1.003 h, 300 ppm | 3380
-1.002 h, 150 ppm | 450
-0.9974 h, 25 ppm | 172
-0.9966 h, 75 ppm | 338
-0.5007 h, 300 ppm | 3850
-0.4991 h, 150 ppm | 466
-0.4977 h, 75 ppm | 337
-0.4481 h, 25 ppm | 182
